Test results as given in BindingDB's records for doi:10.1016/j.bmcl.2003.11.081 (Cubist Pharmaceuticals, 2004).

Tests used:
[1] = molecular target: T1, Phenylalanine--tRNA ligase, mitochondrial (Homo sapiens, UniProt O95363); experiment: ChEBML_154873
T1 sequence (O95363 whole entry): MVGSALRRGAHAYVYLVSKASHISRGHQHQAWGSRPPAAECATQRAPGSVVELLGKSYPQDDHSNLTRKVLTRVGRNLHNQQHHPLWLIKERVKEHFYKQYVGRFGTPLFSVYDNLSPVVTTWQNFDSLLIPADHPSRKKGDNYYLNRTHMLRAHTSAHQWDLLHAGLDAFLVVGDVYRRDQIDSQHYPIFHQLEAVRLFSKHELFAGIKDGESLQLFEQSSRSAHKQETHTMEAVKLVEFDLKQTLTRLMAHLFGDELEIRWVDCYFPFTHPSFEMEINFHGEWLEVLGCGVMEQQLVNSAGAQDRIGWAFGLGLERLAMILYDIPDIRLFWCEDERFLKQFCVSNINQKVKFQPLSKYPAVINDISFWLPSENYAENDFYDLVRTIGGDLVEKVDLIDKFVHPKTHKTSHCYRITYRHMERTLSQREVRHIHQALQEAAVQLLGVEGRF
Experimental: (§1) Inhibitory activity against human phenylalanyl-tRNA synthetase was determined

[2] = molecular target: T1, Phenylalanine--tRNA ligase, mitochondrial; experiment: as §1
[3] = molecular target: Phenylalanine--tRNA ligase (Staphylococcus aureus); experiment: Inhibitory activity against phenylalanyl-tRNA synthetase from Staphylococcus aureus
[4] = molecular target: Phenylalanine--tRNA ligase (Enterococcus faecalis); experiment: Inhibitory activity against phenylalanyl-tRNA synthetase from Enterococcus faecalis
[5] = molecular target: Phenylalanine--tRNA ligase (Enterococcus faecalis); experiment: as above; remark: listed apart in the source

IC50 [1] | IC50 [2] | IC50 [3] | IC50 [4] | IC50 [5] | SMILES
> 100 µM | > 100 µM | > 100 µM | > 100 µM | > 100 µM | Oc1c2c(c(O)n1-c1ccc(Cl)c(Cl)c1)C1(Cc3ccccc3C1)NC2c1ccccc1 (stereo unspecified)
> 100 µM | – | – | > 100 µM | > 100 µM | Cc1ccc(C2OC3(C(=O)c4ccccc4C3=O)c3c2c(O)n(-c2ccc4c(c2)OCO4)c3O)cc1 [5-benzo[d][1,3]dioxol-5-yl-3-(4-methylphenyl)-(3R,3aS,6aR)-spiro[perhydrofuro[3,4-c]pyrrole-1,2'-(2',3'-dihydro-1'H-indene)]-1',3',4,6-tetraone]
> 100 µM | – | – | > 100 µM | > 100 µM | COC(=O)C1NC(c2ccccc2)c2c1c(O)n(-c1ccc(Cl)c(Cl)c1)c2O [methyl 5-(3,4-dichlorophenyl)-4,6-dioxo-3-phenyl-(3R,3aS,6aR)-perhydropyrrolo[3,4-c]pyrrole-1-carboxylate]
– | – | 45 µM | – | 32 µM | O=C1c2ccccc2C(=O)C12OC(c1ccccc1)c1c2c(O)n(-c2ccc(Cl)c(C(F)(F)F)c2)c1O [5-(4-chloro-3-trifluoromethylphenyl)-3-phenyl-(3R,3aS,6aR)-spiro[perhydrofuro[3,4-c]pyrrole-1,2'-(2',3'-dihydro-1'H-indene)]-1',3',4,6-tetraone]
> 100 µM | – | > 100 µM | – | > 100 µM | O=C1c2ccccc2C(=O)C12OC(c1ccccc1)c1c2c(O)n(-c2ccc([N+](=O)[O-])cc2)c1O [5-(4-nitrophenyl)-3-phenyl-(3R,3aS,6aR)-spiro[perhydrofuro[3,4-c]pyrrole-1,2'-(2',3'-dihydro-1'H-indene)]-1',3',4,6-tetraone]
